Test results as given in ChEMBL document CHEMBL3507680, “University of Dundee, Gates Library screen for HepG2 cell viability”.

Assay: Human HepG2 cell viability assay in 384 well format
Type: toxicity, cell-based
Parameters: dose 125 nL, time 70.5 hour; concentration not given beside the values
Details: HepG2 cells, read-out: Inhibition
For `CSc1cccc(CN(C)C(=O)CN2CCN(c3ncccn3)CC2)c1`, the cytotoxicity at 70.5 h was -8.23%.
`O=C(Cc1ccc(Br)cc1)N1CC(S(=O)(=O)C2CCCCC2)C1` gave a cytotoxicity at 70.5 h of -4.51%.
For `Cc1nc(CCN)cc(N2CCOc3ccc(Cl)cc3C2)n1`, the cytotoxicity at 70.5 h was -5.61%.
Work on `Cc1ccc(CN2CCC3(CC2)COCCN3S(C)(=O)=O)o1` yielded a cytotoxicity at 70.5 h of -4.45%.
Compound `COc1cc(OC)c2c(=O)oc(CC(O)CC(C)=O)cc2c1` (stereo not drawn) has a cytotoxicity at 70.5 h of 9.76%.
With `OCc1nnc2n1CCN(c1cnccn1)C2` the cytotoxicity at 70.5 h was -1.17%.
In the case of `Cc1cc(CNc2ccc(-c3nc(C4CC4)no3)cn2)no1`, the cytotoxicity at 70.5 h is reported as -4.31%.
In the case of `Cc1cc(C(=O)N2C[C@H]3CC[C@@H]2CN(Cc2ccccn2)C3)nc(N)n1`, the cytotoxicity at 70.5 h is reported as 23.1%.
For `CCOCC1CN(S(C)(=O)=O)Cc2cnn(C)c21` (stereo not drawn), the cytotoxicity at 70.5 h was -11.1%.
With `CC(C)Cc1noc(CN2CCCC(CNS(N)(=O)=O)C2)n1` (stereo not drawn) the cytotoxicity at 70.5 h was -3.24%.
In the case of `COc1ccc(C(C)N2CCC(OC)CC2)cc1Cl` (stereo not drawn), the cytotoxicity at 70.5 h is reported as -5.66%.
In the case of `O=C(O)[C@@H]1CN(C(=O)CSCC2CC2)C[C@H]1c1ccncc1`, the cytotoxicity at 70.5 h is reported as 1.26%.
With `Cc1cnn(CC2CCCCN2C(=O)c2ccnc(N(C)C)c2)c1` (stereo not drawn) the cytotoxicity at 70.5 h was -17.7%.
Work on `COCC(=O)N1CCCCC1c1nc(N(C)C)ncc1-c1cc(C)no1` (stereo not drawn) yielded a cytotoxicity at 70.5 h of 21.1%.
Compound `CNC(=O)CN1CCC2(CCCN(CC3CCOC3)C2)CC1` (stereo not drawn) has a cytotoxicity at 70.5 h of -6.27%.
`Nc1nc(CCCNC(=O)C2CCCN(Cc3ccco3)C2)cs1` (stereo not drawn) showed a cytotoxicity at 70.5 h of 8.32%.
In the case of `O=C1CO[C@@H]2CN(Cc3cccnc3)C[C@H]2N1Cc1ccncc1`, the cytotoxicity at 70.5 h is reported as -6.09%.
With `CCc1ncnc2c1CCN(C(=O)N1CCCC1)CC2` the cytotoxicity at 70.5 h was 20.9%.
For `COCCNc1nc(-c2ccc(S(=O)(=O)N3CCCCC3)cc2)cs1`, the cytotoxicity at 70.5 h was 0.097%.
Compound `CC(=O)N1CCN(CCNc2snc(Cl)c2C#N)CC1` has a cytotoxicity at 70.5 h of -5.16%.
For `CS(=O)(=O)N1CC(c2ncn3ccccc23)C1`, the cytotoxicity at 70.5 h was -9.83%.
`O=C(NCCc1cccnc1)NCCc1cccs1` showed a cytotoxicity at 70.5 h of 2.09%.
Compound `Cc1nnc([C@@]23CCO[C@@H]2CCN(Cc2ccc4c(c2)OCO4)C3)o1` has a cytotoxicity at 70.5 h of -2.95%.
Work on `CN(C)CCOC1CC2(CCN(c3cnccn3)CC2)c2ccccc21` (stereo not drawn) yielded a cytotoxicity at 70.5 h of 31.5%.
`Cc1cc(C)nc(N2CCC(c3ccnc(N(C)C)n3)CC2)n1` showed a cytotoxicity at 70.5 h of -3.9%.
`Cc1cc(C(F)(F)F)nn1C(C)C(=O)Nc1ccncc1` (stereo not drawn) gave a cytotoxicity at 70.5 h of 23.9%.
`Cc1noc(C2CCCN(CC(=O)N3CCc4ccccc4C3)C2)n1` (stereo not drawn) showed a cytotoxicity at 70.5 h of -1.69%.
With `CNC(=O)CN1CCOCC2(CCCN(CCc3ccccc3)C2)C1` (stereo not drawn) the cytotoxicity at 70.5 h was -10.9%.
For `Cc1nc(C2CCN(S(=O)(=O)c3ccc4c(c3)CCO4)CC2)n[nH]1`, the cytotoxicity at 70.5 h was 0.662%.
`CCCN(C(=O)COC)c1nc2c(s1)CCc1c-2cnn1C` gave a cytotoxicity at 70.5 h of 3.43%.
`NCCc1cc(N2CCOCC2)nc(NC2CC2)n1` showed a cytotoxicity at 70.5 h of -8.21%.
`O=c1c2cccnc2cnn1CC(O)c1ccc(F)c(F)c1` (stereo not drawn) gave a cytotoxicity at 70.5 h of -6.63%.
Compound `Cn1cc(S(=O)(=O)N2CCCC(Cn3cncn3)C2)cn1` (stereo not drawn) has a cytotoxicity at 70.5 h of -2.09%.
For `CCCOc1cc(Cl)c(CN2CCNC(C(=O)NC3CC3)C2)cc1OC` (stereo not drawn), the cytotoxicity at 70.5 h was -10.6%.
`COc1ccc(Cl)cc1CCNC(=O)NCc1noc(C)n1` gave a cytotoxicity at 70.5 h of -3.63%.
Work on `Cc1cnn(CCNCC(O)COc2c(C)ccc(C)c2C)c1` (stereo not drawn) yielded a cytotoxicity at 70.5 h of -5.42%.
`COCC(=O)NC(C)Cc1cccc(Br)c1` (stereo not drawn) showed a cytotoxicity at 70.5 h of 33.7%.
`Cc1cc(NC2CC3(CCN(Cc4ncccc4F)C3)C2)ncn1` (stereo not drawn) gave a cytotoxicity at 70.5 h of -3.79%.
`Cc1cnn(CCCOc2ccc3c(c2)OCO3)c1` showed a cytotoxicity at 70.5 h of -0.603%.
In the case of `COC(=O)CCNC(=O)c1cc(Br)c2c(c1)OCCO2`, the cytotoxicity at 70.5 h is reported as -10.5%.
`CCc1nnc(CN(C)C[C@@H]2CCCN3CCCC[C@H]23)o1` gave a cytotoxicity at 70.5 h of -3.62%.
`CCCC(=O)N(Cc1ccncc1)C(C)CC` (stereo not drawn) gave a cytotoxicity at 70.5 h of -6.83%.
In the case of `COCC1CN(Cc2ccc(OC)cc2)Cc2nnn(CC3CC3)c21` (stereo not drawn), the cytotoxicity at 70.5 h is reported as -4.99%.
`CN(C)S(=O)(=O)N(C)C(c1cccnc1)c1ccc(F)c(F)c1` (stereo not drawn) gave a cytotoxicity at 70.5 h of 14.4%.
Work on `COCC(=O)N1CCC(c2nc3ccc(N4CCOCC4)cn3n2)CC1` yielded a cytotoxicity at 70.5 h of -2.79%.
For `N#Cc1cccc(N2CCCC(CO)(Cc3ccccc3F)C2)n1` (stereo not drawn), the cytotoxicity at 70.5 h was 20.1%.
For `N#Cc1cccc(NS(=O)(=O)c2ccc(C(=O)O)cc2F)c1`, the cytotoxicity at 70.5 h was -13.8%.
`O=C(CCc1nc(C2CC2)no1)c1ccc2c(c1)OCCO2` showed a cytotoxicity at 70.5 h of -16.9%.
For `Cc1cc(-c2cc(C3CCOC3)c(C#N)c(N)n2)ccc1Cl` (stereo not drawn), the cytotoxicity at 70.5 h was -10.8%.
Compound `CCOc1ccc(CC(CNC(=O)c2ccoc2)C(N)=O)cc1` (stereo not drawn) has a cytotoxicity at 70.5 h of 49.1%.
In the case of `O=S(=O)(NCc1cccnc1OC1CCCC1)N1CCCCC1`, the cytotoxicity at 70.5 h is reported as 0.259%.
With `CN(C)CC(NC(=O)c1ccn(C)c(=O)c1)c1ccccc1` (stereo not drawn) the cytotoxicity at 70.5 h was 0.262%.
With `CN(C)CCO[C@@H]1CC[C@H]2[C@H]1OCCN2C(=O)c1ccncc1` the cytotoxicity at 70.5 h was -3.32%.
Work on `CNC(=O)CN1CCCC12CCN(Cc1c[nH]cn1)CC2` yielded a cytotoxicity at 70.5 h of -24.2%.
`Cc1cnc(N2CCC3(CC2)CC3CNC(=O)N(C)C)nc1` (stereo not drawn) showed a cytotoxicity at 70.5 h of -6.55%.
With `CCc1nc(C2CCCN2c2ncc(C(F)(F)F)cc2Cl)no1` (stereo not drawn) the cytotoxicity at 70.5 h was 1.13%.
With `COC[C@@]12CCO[C@@H]1CCN(C(=O)Cc1ccccc1F)C2` the cytotoxicity at 70.5 h was -10.5%.
`Cc1nnc(CN2CCC(N(C)Cc3nnc(C4CC4)n3C)C2)o1` (stereo not drawn) gave a cytotoxicity at 70.5 h of -21.8%.
Compound `O=C1CCC2(CCCN(C(=O)Cc3cccs3)C2)N1` (stereo not drawn) has a cytotoxicity at 70.5 h of -5%.
In the case of `CCO[C@@H]1CO[C@@]2(CCCN(S(=O)(=O)c3cccnc3)C2)C1`, the cytotoxicity at 70.5 h is reported as -17.7%.
Work on `COCCn1cc(NC(=O)NCC(C)N2CCOCC2)cn1` (stereo not drawn) yielded a cytotoxicity at 70.5 h of -13.2%.
Work on `Cc1nn(C)c(Oc2ccc(Cl)cc2)c1CN1CCC(CN)C1` (stereo not drawn) yielded a cytotoxicity at 70.5 h of -8.55%.
Work on `CNC(=O)CN1CCCC1c1ccccc1Br` (stereo not drawn) yielded a cytotoxicity at 70.5 h of -6.18%.
Compound `O=C(NCCN1CCCCCC1)c1n[nH]c(=O)c2ccccc12` has a cytotoxicity at 70.5 h of 1.79%.
With `Cc1ccc(OCC2CCCN(c3cc(C(N)=O)ccn3)C2)cc1` (stereo not drawn) the cytotoxicity at 70.5 h was 4.54%.
In the case of `CCn1cc(CN2CCCN(C(=O)c3cccc(C#N)c3)CC2)cn1`, the cytotoxicity at 70.5 h is reported as -3.9%.
In the case of `Cc1cc(C(F)(F)F)n2nc(C3CCN(S(=O)(=O)N(C)C)CC3)cc2n1`, the cytotoxicity at 70.5 h is reported as -0.288%.
With `O=C1CCCN1CCN1CCCCC1Cn1cncn1` (stereo not drawn) the cytotoxicity at 70.5 h was 17.7%.
Compound `Nc1nccnc1CC1CCCN(Cc2c[nH]c3ccccc23)C1` (stereo not drawn) has a cytotoxicity at 70.5 h of -9.09%.
In the case of `CC(C)Cc1cc(C(=O)NC(C)(C)CN2CCCCCC2)on1`, the cytotoxicity at 70.5 h is reported as -4.52%.
For `COc1coc(CN2CCCC(CCc3ccccc3F)C2)cc1=O` (stereo not drawn), the cytotoxicity at 70.5 h was 16.9%.
`Cc1nn(C)c(C)c1C1COCCN1c1ncnc2sccc12` (stereo not drawn) gave a cytotoxicity at 70.5 h of -11.4%.
With `Cc1noc(C)c1CNC(=O)N1CCC(OCC2CC2)CC1` the cytotoxicity at 70.5 h was 25.4%.
Work on `CCC(CC)c1cc(CNC(=O)N2CCC(CO)CC2)on1` yielded a cytotoxicity at 70.5 h of -4.82%.
`Cc1cc(NC2CCc3nc(C)nn3C2)n2ncnc2n1` (stereo not drawn) showed a cytotoxicity at 70.5 h of -98.6%.
`CCn1ncnc1C(C)NC(=O)Cc1cc2c(cc1Cl)OCCO2` (stereo not drawn) showed a cytotoxicity at 70.5 h of 1.43%.
With `Cc1ccc(C)c(NC(=O)c2coc(C)n2)c1` the cytotoxicity at 70.5 h was -6.52%.
In the case of `CN(Cc1ccncc1)C(CO)c1cccc(Br)c1` (stereo not drawn), the cytotoxicity at 70.5 h is reported as -21%.
Compound `COc1c(C2CCCN2Cc2noc(C(C)C)n2)c(C)nn1C` (stereo not drawn) has a cytotoxicity at 70.5 h of 28.5%.
In the case of `O=C(c1cc(Cl)c2c(c1)OCO2)N1CCCC(n2ccnc2)C1` (stereo not drawn), the cytotoxicity at 70.5 h is reported as -8.93%.
`COc1cc(C)ccc1OCC(=O)NS(=O)(=O)c1ccc(Br)s1` showed a cytotoxicity at 70.5 h of -4.31%.
Compound `O=C1N(CC2CC2)C(c2cncs2)NC12CCCC2` (stereo not drawn) has a cytotoxicity at 70.5 h of -4.01%.
Work on `c1coc(CN2CCO[C@H]3[C@H](OCC4CC4)CC[C@@H]32)c1` yielded a cytotoxicity at 70.5 h of -10.8%.
